Active and inactive are the calls of the source. The rule behind the calls is not given here.

Test [1] deals with 3T3-L1. As to the kind of experiment: Inhibition of cell growth in mouse 3T3-L1 cells after 24 to 48 hrs by MTT assay. In kind it is functional, cell-based. The conditions noted are these: time 24-48 hrs. Background: Formazan colour is commonly taken as a measure of viable cells.
Test [2] concerns 3T3-L1. Description: Inhibition of cell growth in mouse 3T3-L1 cells at 0.5 to 2 mmol/L by MTT assay. The conditions noted are these: dose 0.5-2 mmol/L, time 24-48 hrs, TDE = time-dependent effect. In kind it is functional, cell-based.
The test system of test [3] is 3T3-L1. Description: Inhibition of fibronectin secretion in mouse 3T3-L1 cells assessed as reduction in accumulation of fibronectin in extracellular matrix incubated for 48 hrs by ELISA (reference value: 1389.10 +/- 9.19 ng/ml). The following applies: dose 0.5-2 mmol/L. In kind it is functional, cell-based. (In general: In an ELISA, binding on a coated surface is turned into a signal by an enzyme label.)

The subject of test [4] is 3T3-L1. As to the kind of experiment: Inhibition of cell growth in mouse 3T3-L1 cells at […] after 24 to 48 hrs by MTT assay. In kind it is functional. The conditions noted are these: dose 2 mmol/L, time 24-48 hrs.

For `O=c1ccccn1-c1ccc(/C=N\Nc2ccccc2)cc1`, the inhibition entry is “Dose-Dependent Effect” in the test on 3T3-L1 [1] and “Tde” in the test on 3T3-L1 [2]. Further, the inhibition result with 3T3-L1 [3] was “Active”.

In the case of `NC(=S)N/N=C\c1ccc(-n2ccccc2=O)cc1`, the inhibition entry in the test with 3T3-L1 [1] is “Dose-Dependent Effect”; in the test on 3T3-L1 [2], “Tde”. In the test on 3T3-L1 [3], the inhibition result was “Active”.

Take `O=c1ccccn1-c1ccc(C2=NCCCN2)cc1`: the inhibition entry in the test on 3T3-L1 [1] was “Dose-Dependent Effect”; in the test with 3T3-L1 [2] it was “Tde”. Also, in the test on 3T3-L1 [3], the inhibition result is “Active”.

`O=c1ccccn1-c1ccc(C2=NC3CCCCC3N2)cc1` (stereo not drawn): the inhibition entry with 3T3-L1 [1] was “Dose-Dependent Effect”; in the test with 3T3-L1 [2] it was “Tde”. 2000 µM produced 95.4% inhibition in the test with 3T3-L1 [4]. In addition, the inhibition result with 3T3-L1 [3] is “Active”.

As to `O=c1ccccn1-c1ccc(C2=NCCN2)cc1`, the inhibition entry in the test on 3T3-L1 [1] is “Dose-Dependent Effect”; in the test with 3T3-L1 [2], “Tde”. Further, the inhibition result in the test with 3T3-L1 [3] was “Active”.

In the case of `N/N=C/c1ccc(-n2ccccc2=O)cc1`, the inhibition entry in the test on 3T3-L1 [1] was “Dose-Dependent Effect”; in the test with 3T3-L1 [2], “Tde”. Moreover, the inhibition entry in the test on 3T3-L1 [3] is “Active”.

On to `NC(=O)N/N=C\c1ccc(-n2ccccc2=O)cc1`, for which the inhibition result is “Dose-Dependent Effect” with 3T3-L1 [1] and “Tde” with 3T3-L1 [2]. In addition, the inhibition result with 3T3-L1 [3] is “Active”.

For the compound `Cc1ccc(=O)n(-c2ccccc2)c1`, in the test on 3T3-L1 [1], the inhibition result is “Dose-Dependent Effect”.

As usually defined, the inhibition is the change of the read-out against control, counted positive when it falls.

These data come from ChEMBL document CHEMBL5329151, “Novel pirfenidone derivatives: synthesis and biological evaluation” (2023).
